Test results published in PMC8729174 (RSC Chemical Biology, 2021).

Key:
[1] = tested on: sstr2-negative CHO cell line; settings: read-out: IC50 on CHO cells; cited from earlier work
sstr2 = settings: read-out: Kd for sstr2; cited from earlier work
Ar42J cells = assay: Cell death kinetics; type: cell-based, rat; settings: MTS, n = 3, 6 at 60 nM, α-amanitin 1 at 10 μM

Row | Substance | IC50 [1] | Kd (sstr2) | cell viability after 24 hours of incubation (in words) (Ar42J cells; 24 h) | cell viability after 48 hours of incubation (in words) (Ar42J cells; 48 h)
1 | N-propargyl-dideoxy-amanitin [compound 4] | 1000 to 2000 nM |  |  | 
2 | octreotate [compound 2] |  | ~0.4 nM |  | 
3 | α-amanitin [compound 1] | 300 to 700 nM |  | remained fully viable | loss of cell viability was only observed after 48 hours
